Assay results taken from patent publication US9308210B2, “Method for modulating canonical Wnt pathway using folate and inositol” (University of South Florida, priority 2009, dated 2016).
Counter-ions that a name gives are not always drawn.

Key:
HTR-8/SVneo cells = assay: In vitro wound assay of human trophoblast cell migration; format: cell-based; details: HCy exposure experiments; scrape wound
Source text: In previous studies by the inventors analyzing the effects of lithium and the metabolite homocysteine (HCy) on early heart development, the results were similar. Both factors inhibited Wnt/β-catenin-mediated gene expression during induction stages of cardiogenesis. […] Folate protects the embryo from these adverse effects (Han et al., 2009). It was also noted that normal placental development was adversely affected by Li and HCy. A human trophoblast cell line, HTR-8/SVneo cells, was used to determine whether Li or HCy affect the migration of these cells in vitro and whether FA or FA/myo-inositol would protect the cells from adverse effects of the two cardiac teratogens. HCy exposure experiments were conducted. […] The wound edges are depicted by a white line in B. In panel A, it can be seen that the wound area is smaller. Administration of a combination of FA/myo-inositol, FA alone or myo-inositol alone, enhanced the expression of NMHC-IIB and FN to facilitate cell migration.

C57BL/6 mouse embryos [1] = details: in vivo
C57BL/6 mouse embryos [2] = assay: Morphometric measurements, resorptions and lethality of mouse embryos after Li or HCy exposure, FA rescue; format: in vivo; details: for Resorptions (percent): hydrochloride
Source text: To determine whether the results in the avian system would extend to the mammalian system, the inventors conducted studies in the mouse embryo. All mice were maintained according to protocols approved by the Institutional Animal Care and Use Committee at the University of South Florida. The C57BL/6 mouse strain (Jackson Laboratories, Bar Harbor, Me.) was used throughout the study. E0.5 was defined as the morning when the vaginal sperm plug was detected. Timed pregnant mice were randomly allocated to receive a single dose of 100 μl of 6.25 mg/ml Li chloride, as determined previously (Chen et al., 2008), 100 μl of 75 μM HCy, or 100 μl of 6.25 mg/ml sodium chloride (control group); all treatments were given intraperitoneally (i.p). On E15.5, the utero-placental circulation of the pregnant mice, and the central and peripheral circulations of the embryos were examined non-invasively in utero using Doppler ultrasonography (Gui et al., 1996; Linask and Huhta, 2000). Sixty-eight embryos were exposed to Li, 59 to HCy and 42 to physiological saline.
An HCy concentration of 75 μM, used for maternal exposure, was determined empirically using different doses of HCy (i.e. 150, 75, 50 and 15 μM). The minimal teratogenic dose was determined to be 75 μM. […] The single i.p. injection of HCy at E6.75 produced a high number of valve defects (66%), as well as resorptions (46%). […] Because not all embryos within litters are at exactly the same stage of development, the variability of effects seen with either Li or HCy probably reflects the differences in developmental stage.
Following echo monitoring on E15.5, placental weight and morphometric measurements of crown-rump length and body weight were obtained. […] HCy administered on E6.75 induced valve defects in 66.1% of the embryos (39/59 embryos). Some litters were allowed to develop to E18.5.

E15.5 mouse hearts = assay: Histology of HCy-exposed E15.5 mouse hearts; format: in vivo; details: single HCy exposure on E6.75
Protocol: Li- and HCy-exposed embryos, and control NaCl-exposed embryos, were fixed in 4% paraformaldehyde in phosphate buffered saline (PBS, pH 7.4) and paraffin sectioned. Sections were stained with hematoxylin-eosin, and some were stained with Toluidine Blue, and examined. Cardiac regions were analyzed for the presence of any obvious malformations using a Nikon SMZ1500 fluorescent stereomicroscope, and digitized images were obtained using a Nikon DS-L2 camera unit.
Malformed and small aortic valves (AoV in H) and pulmonary valves (PV in I) were apparent. […] This was exemplified by a post-stenotic dilatation of the pulmonary artery, apparent in FIG. 12L. […] In summary, in addition to the general cardiac hypertrophy, the viable cardiac anomalies that were observed on E15.5 following a single HCy exposure on E6.75 related primarily to derivatives of the SHF, that is the outflow, the right ventricle, and the tricuspid and SL valves.

| SMILES | expression of NMHC-IIB and FN (HTR-8/SVneo cells) | DAPI (C57BL/6 mouse embryos [1]) | DVPI (C57BL/6 mouse embryos [1]) | E/A Ratio (C57BL/6 mouse embryos [1]) | HR (C57BL/6 mouse embryos [1]) [bpm] | ICT % (C57BL/6 mouse embryos [1]) [%] | IRT % (C57BL/6 mouse embryos [1]) [%] | MPI (C57BL/6 mouse embryos [1]) | OF (C57BL/6 mouse embryos [1]) [cm/s] | RR (C57BL/6 mouse embryos [1]) [ms] | UAPI (C57BL/6 mouse embryos [1]) | Body Weight (C57BL/6 mouse embryos [2]; E15.5 after exposure on E6.75) [g] | CRL (C57BL/6 mouse embryos [2]; E15.5 after exposure on E6.75) [mm] | Placenta Weight (C57BL/6 mouse embryos [2]; E15.5 after exposure on E6.75) [g] | embryonic lethality (C57BL/6 mouse embryos [2]; acute single dose of HCy at E5.5) [%] | Resorptions (embryos/total) (C57BL/6 mouse embryos [2]; exposure on E6.75) | Resorptions (percent) (C57BL/6 mouse embryos [2]; exposure on E6.75) [%] | Resorptions (percent) (C57BL/6 mouse embryos [2]; exposure on E6.75, listed as HCys) [%] | placental weight, crown-rump length and body weight versus control embryos (C57BL/6 mouse embryos [2]; single exposure on E6.75, E15.5) | cardiac pathology on E15.5 (E15.5 mouse hearts) |
| --- | --- | --- | --- | --- | --- | --- | --- | --- | --- | --- | --- | --- | --- | --- | --- | --- | --- | --- | --- | --- |
| Nc1nc2ncc(CNc3ccc(C(=O)N[C@@H](CCC(=O)O)C(=O)O)cc3)nc2c(=O)[nH]1 [FA, folic acid] | enhanced | 1.82 | 1.04 | 0.28 | 191 | 7.32 | 12.82 | 0.50 | 34.30 | 314 | 1.71 | – | – | – | – | – | – | – | – | – |
| N[C@H]1CCSC1=O [HCy, L-homocysteine thiolactone hydrochloride] | – | – | – | – | – | – | – | – | – | – | – | 0.35 | 13 | 0.11 | 79 | 27/59 | 46 | 45.7 | significantly decreased | right and left side cardiac hypertrophy |
